Source: patent US20150105252A1, “SUBSTITUTED PYRAZOLES AS HERBICIDES” (E I DU PONT DE NEMOURS AND COMPANY, priority 2013, published 2015)

Key:
Conditions in all cases: scale 0 to 100
windgrass = test: Test D preemergence; assay type: in vivo, Apera spica-venti
Text: (§1) Seeds of plant species selected from bluegrass (annual bluegrass, Poa annua), blackgrass (Alopecurus myosuroides), canarygrass (littleseed canarygrass, Phalaris minor), chickweed (common chickweed, Stellaria media), galium (catchweed bedstraw, Galium aparine), bromegrass, downy (downy bromegrass, Bromus tectorum), field poppy (Papaver rhoeas), field violet (Viola arvensis), foxtail, green (green foxtail, Setaria viridis), deadnettle (henbit deadnettle, Lamium amplexicaule), ryegrass, Italian (Italian ryegrass, Lolium multiflorum), kochia (Kochia scoparia), lambsquarters (Chenopodium album), oilseed rape (Brassica napus), pigweed (redroot pigweed, Amaranthus retroflexus), chamomile (scentless chamomile, Matricaria inodora), speedwell (bird's-eye speedwell, Veronica persica), barley, spring (spring barley, Hordeum vulgare), wheat, spring (spring wheat, Triticum aestivum), buckwheat, wild (wild buckwheat, Polygonum convolvulus), mustard, wild (wild mustard, Sinapis arvensis), oat, wild (wild oat, Avena fatua), radish, wild (wild radish, Raphanus raphanistrum), windgrass (Apera spica-venti), Russian thistle (Salsola kali), barley, winter (winter barley, Hordeum vulgare), and wheat, winter (winter wheat, Triticum aestivum) were planted into a silt loam soil and treated preemergence with test chemicals formulated in a non-phytotoxic solvent mixture which included a surfactant.
(§2) At the same time, these species were planted in pots containing Redi-Earth® planting medium (Scotts Company, 14111 Scottslawn Road, Marysville, Ohio 43041) comprising spaghnum peat moss, vermiculite, wetting agent and starter nutrients and treated with postemergence applications of the test chemicals formulated in the same manner. Plants ranged in height from 2 to 18 cm (1- to 4-leaf stage). Treated plants and controls were maintained in a controlled growth environment for 14 to 21 days after which time all species were compared to controls and visually evaluated. Plant response ratings, summarized in Table D, are based on a scale of 0 to 100 where 0 is no effect and 100 is complete control. A dash (-) response means no test result.

chickweed [1] = test: Test D postemergence; assay type: in vivo, Stellaria media
Text: as §1, §2

oilseed rape = test: Test D postemergence; assay type: in vivo, Brassica napus
Text: as §1, §2

field poppy = test: Test D preemergence; assay type: in vivo, Papaver rhoeas
Text: as §1, §2

canarygrass = test: Test D postemergence; assay type: in vivo, Phalaris minor
Text: as §1, §2

hairy beggarticks = test: Test F postemergence; assay type: in vivo, Bidens pilosa
Text: (§3) Seeds of plant species selected from corn (Zea mays), soybean (Glycine max), velvetleaf (Abutilon theophrasti), lambsquarters (Chenopodium album), wild poinsettia (Euphorbia heterophylla), pigweed, palmer (palmer pigweed, Amaranthus palmeri), common waterhemp (Amaranthus rudis), surinam grass (Brachiaria decumbens), large crabgrass (Digitaria sanguinalis), crabgrass, Brazil (Brazilian crabgrass, Digitaria horizontalis), fall panicum (Panicum dichotomiflorum), giant foxtail (Setaria faberii), green foxtail (Setaria viridis), goosegrass (Eleusine indica), johnsongrass (Sorghum halepense), common ragweed (Ambrosia elation), barnyardgrass (Echinochloa crus-galli), southern sandbur (Cenchrus echinatus), arrowleaf sida (Sida rhombifolia), Italian ryegrass (Lolium multiflorum), dayflower, VA (Virginia (VA) dayflower, Commelina virginica), field bindweed (Convolvulus arvensis), cocklebur (common cocklebur, Xanthium strumarium), morningglory (Ipomoea coccinea), nightshade (eastern black nightshade, Solanum ptycanthum), kochia (Kochia scoparia), yellow nutsedge (Cyperus esculentus), and hairy beggarticks (Bidens pilosa), were planted into a silt loam soil and treated preemergence with test chemicals formulated in a non-phytotoxic solvent mixture which included a surfactant.
(§4) At the same time, plants from these crop and weed species and also horseweed (Canada horseweed, Conyza canadensis), smartweed (ladysthumb smartweed, Polygonum persicaria), waterhemp_RES1, (ALS & Triazine resistant common waterhemp, Amaranthus rudis), and waterhemp_RES2, (ALS & HPPD resistant common waterhemp, Amaranthus rudis) were treated with postemergence applications of test chemicals formulated in the same manner. Plants ranged in height from 2 to 18 cm for postemergence treatments (1- to 4-leaf stage). Treated plants and controls were maintained in a greenhouse for 14 to 21 days, after which time all species were compared to controls and visually evaluated. Plant response ratings, summarized in Table F, are based on a scale of 0 to 100 where 0 is no effect and 100 is complete control. A dash (-) response means no test result.

chickweed [2] = test: Test D preemergence; assay type: in vivo, Stellaria media
Text: as §1, §2

horseweed = test: Test F postemergence; assay type: in vivo, Conyza canadensis
Text: as §3, §4

Row | SMILES | Plant response rating, Windgrass (windgrass; 62 g ai/ha) | Plant response rating, Windgrass (windgrass; 125 g ai/ha) | Plant response rating, Windgrass (windgrass; 250 g ai/ha) | Chickweed plant response rating (chickweed [1]; Postemergence, 31 g ai/ha) | Chickweed plant response rating (chickweed [1]; Postemergence, 125 g ai/ha) | Chickweed plant response rating (chickweed [1]; Postemergence, 250 g ai/ha) | Chickweed plant response rating (chickweed [1]; postemergence, 62 g ai/ha) | Oilseed Rape plant response rating (oilseed rape; Postemergence, 31 g ai/ha) | Oilseed Rape plant response rating (oilseed rape; Postemergence, 125 g ai/ha) | Oilseed Rape plant response rating (oilseed rape; Postemergence, 250 g ai/ha) | Oilseed Rape plant response rating (oilseed rape; postemergence, 62 g ai/ha) | Plant response rating, Field Poppy (field poppy; 62 g ai/ha) | Plant response rating, Field Poppy (field poppy; 125 g ai/ha) | Plant response rating, Field Poppy (field poppy; 250 g ai/ha) | Canarygrass plant response rating (canarygrass; Postemergence, 31 g ai/ha) | Canarygrass plant response rating (canarygrass; Postemergence, 125 g ai/ha) | Canarygrass plant response rating (canarygrass; Postemergence, 250 g ai/ha) | Canarygrass plant response rating (canarygrass; postemergence, 62 g ai/ha) | Plant response rating, Chickweed (chickweed [2]; 31 g ai/ha) | Plant response rating, Chickweed (chickweed [2]; 62 g ai/ha) | also measured
1 | CCc1cc(C(=O)NCC(F)(F)F)nn1Cc1ccnc(C(F)(F)F)c1 [Compound 78, 5-ethyl-N-(2,2,2-trifluoroethyl)-1-[[(2-trifluoromethyl)-4-pyridinyl]methyl]-1H-pyrazole-3-carboxamide] | 100 | 100 | 100 | 25 | 70 | 80 | 50 | 35 | 60 | 80 | 50 | 100 | 100 | 100 | 5 | 15 | 25 | 10 | 100 | 100 | Plant response rating, Windgrass (windgrass; 31 g ai/ha): 90; Plant response rating, Field Poppy (field poppy; 31 g ai/ha): 100; Plant response rating, Hairy Beggarticks (hairy beggarticks; Postemergence, 31 g ai/ha): 30; Plant response rating, Hairy Beggarticks (hairy beggarticks; Postemergence, 125 g ai/ha): 50; Plant response rating, Hairy Beggarticks (hairy beggarticks; Postemergence, 250 g ai/ha): 75; Plant response rating, Hairy Beggarticks (hairy beggarticks; postemergence, 62 g ai/ha): 40; Plant response rating, Hairy Beggarticks (hairy beggarticks; postemergence, 500 g ai/ha): 90; Plant response rating, Chickweed (chickweed [2]; 125 g ai/ha): 100; Plant response rating, Chickweed (chickweed [2]; 250 g ai/ha): 100; Plant response rating, Horseweed (horseweed; Postemergence, 31 g ai/ha): 25; Plant response rating, Horseweed (horseweed; Postemergence, 125 g ai/ha): 40; Plant response rating, Horseweed (horseweed; Postemergence, 250 g ai/ha): 50; Plant response rating, Horseweed (horseweed; postemergence, 62 g ai/ha): 30; Plant response rating, Horseweed (horseweed; postemergence, 500 g ai/ha): 75
2 | CCc1cc(C(=O)NC(C)C)nn1Cc1ccnc(C(F)(F)F)c1 [Compound 103] | 80 | 100 | 100 | 20 | 40 | 70 | 25 | 25 | 35 | 45 | 35 | 100 | 100 | 100 | 5 | 10 | 10 | 5 | 95 | 100 | Plant response rating, Windgrass (windgrass; 31 g ai/ha): 15; Plant response rating, Field Poppy (field poppy; 31 g ai/ha): 100; Plant response rating, Chickweed (chickweed [2]; 125 g ai/ha): 100; Plant response rating, Chickweed (chickweed [2]; 250 g ai/ha): 100
3 | CCOc1cc(C(=O)NCC(F)(F)F)nn1Cc1ccnc(C(F)(F)F)c1 [Compound 104] |  |  |  |  |  |  |  |  |  |  |  |  |  |  |  |  |  |  |  |  | Plant response rating, Hairy Beggarticks (hairy beggarticks; Postemergence, 31 g ai/ha): 50; Plant response rating, Hairy Beggarticks (hairy beggarticks; Postemergence, 125 g ai/ha): 60; Plant response rating, Hairy Beggarticks (hairy beggarticks; Postemergence, 250 g ai/ha): 85; Plant response rating, Hairy Beggarticks (hairy beggarticks; postemergence, 62 g ai/ha): 50; Plant response rating, Hairy Beggarticks (hairy beggarticks; postemergence, 500 g ai/ha): 90; Plant response rating, Horseweed (horseweed; Postemergence, 31 g ai/ha): 25; Plant response rating, Horseweed (horseweed; Postemergence, 125 g ai/ha): 35; Plant response rating, Horseweed (horseweed; Postemergence, 250 g ai/ha): 35; Plant response rating, Horseweed (horseweed; postemergence, 62 g ai/ha): 30; Plant response rating, Horseweed (horseweed; postemergence, 500 g ai/ha): 45
4 | CCCc1cc(C(=O)NCC(F)(F)F)nn1Cc1ccnc(C(F)(F)F)c1 [Compound 105] | 100 | 100 | 100 | 20 | 70 | 80 | 55 | 40 | 70 | 85 | 60 | 100 | 100 | 100 | 10 | 25 | 40 | 15 | 95 | 100 | Plant response rating, Windgrass (windgrass; 31 g ai/ha): 75; Plant response rating, Field Poppy (field poppy; 31 g ai/ha): 100; Plant response rating, Hairy Beggarticks (hairy beggarticks; Postemergence, 31 g ai/ha): 40; Plant response rating, Hairy Beggarticks (hairy beggarticks; Postemergence, 125 g ai/ha): 50; Plant response rating, Hairy Beggarticks (hairy beggarticks; Postemergence, 250 g ai/ha): 70; Plant response rating, Hairy Beggarticks (hairy beggarticks; postemergence, 62 g ai/ha): 50; Plant response rating, Hairy Beggarticks (hairy beggarticks; postemergence, 500 g ai/ha): 85; Plant response rating, Chickweed (chickweed [2]; 125 g ai/ha): 100; Plant response rating, Chickweed (chickweed [2]; 250 g ai/ha): 100; Plant response rating, Horseweed (horseweed; Postemergence, 31 g ai/ha): 20; Plant response rating, Horseweed (horseweed; Postemergence, 125 g ai/ha): 35; Plant response rating, Horseweed (horseweed; Postemergence, 250 g ai/ha): 50; Plant response rating, Horseweed (horseweed; postemergence, 62 g ai/ha): 25; Plant response rating, Horseweed (horseweed; postemergence, 500 g ai/ha): 70
5 | CCCc1cc(C(=O)NCC(F)(F)F)nn1Cc1cc(C(F)(F)F)nn1C [Compound 138] | 45 | 100 | 100 | 70 | 80 | 75 | 70 | 60 | 90 | 100 | 60 | 100 | 100 | 100 | 5 | 25 | 70 | 5 | 100 | 100 | Plant response rating, Chickweed (chickweed [2]; 125 g ai/ha): 100; Plant response rating, Chickweed (chickweed [2]; 250 g ai/ha): 100
6 | CCOc1cc(C(=O)NC2CC2)nn1Cc1ccnc(C(F)(F)F)c1 [Compound 189] | 65 | 100 | 100 | 75 | 70 | 85 | 75 | 40 | 55 | 60 | 40 | 100 | 100 | 100 | 15 | 20 | 30 | 15 | 95 | 100 | Plant response rating, Chickweed (chickweed [2]; 125 g ai/ha): 100; Plant response rating, Chickweed (chickweed [2]; 250 g ai/ha): 100
